Drawing on publication PMC6271551 (2014), this text covers ΔTm for two molecules.

This test has as its system F21T (DNA, G4) GGGTTAGGGTTAGGGTTAGGG
As to the kind of experiment: FRET melting. The conditions noted are these: 0.1 M KCl, 10 mM sodium cacodylate pH 7.2, 0.25 µM DNA.

SMILES strings stand for the structures.

On to `COc1ccc(Cc2nccc3cc(OC)c(OC)cc23)cc1OC`, for which the ΔTm (120 µM compound, authors: almost no interaction) was ~ 5 °C.

Consider `COc1ccc2cc3[n+](cc2c1OC)CCc1cc2c(cc1-3)OCO2`, for which the ΔTm (50 µM compound) is ~ 15.5 °C.
